# Test results published in patent publication US20190358242A1, “COMPOSITIONS, KITS, AND METHODS TO INDUCE ACQUIRED CYTORESISTANCE USING STRESS PROTEIN INDUCERS” (FRED HUTCHINSON CANCER RESEARCH CENTER, priority 2017, published 2019).
# Columns and labels:
# [1] = system: HO-1 protein; assay: Cardiac HO-1 protein (ELISA); format: in vivo, CD-1 mice; settings: 18 h after IV injection
# Experimental: (§1) Thirty-two mice were divided into 4 equal groups: (1) control mice; (2) mice treated with 1 mg of N-Mgb injection (as a bolus through the tail vein); (3) mice treated with […] of SnPP (via tail vein); and (4) mice treated with combined N-Mgb 1 SnPP. After either 4 hours (n=16) or 18 hours (n=16), the mice were deeply anesthetized with pentobarbital (50 mg/kg), the abdomen was opened through a midline abdominal incision, and the kidneys were removed. To determine potential effects on extrarenal organs, a liver lobe and the heart were also removed. The tissues were iced and then extracted for protein and RNA (RNeasy Plus Mini; Qiagen, Valencia, Calif.) and subjected to enzyme linked immunosorbent assay (ELISA) and reverse transcriptase polymerase chain reaction (RT-PCR) for HO-1, haptoglobin, and IL-10 protein and messenger RNAs (mRNAs). Zager et al. J Am Soc Nephrol 2014; 25:998-1012; Zager et al. Am J Physiol 2012; 303:F139-48. As an assessment of renal function, control mice and the 18 hour after N-Mgb+SnPP-treated mice had blood urea nitrogen (BUN) and plasma creatinine levels measured. Additionally, transverse 10% formalin fixed kidney sections ([…]) were cut and stained with hematoxylin and eosin (H&E) and periodic acid Schiff (PAS) to further assess potential injury.
# [2] = system: IL-10 mRNA; assay: Liver IL-10 mRNA (RT-PCR); format: in vivo, CD-1 mice
# Experimental: as §1
# [3] = system: glycerol model of rhabdomyolysis-induced AKI; assay: Glycerol model of rhabdomyolysis-induced AKI; format: in vivo, CD-1 mice; settings: IV pretreatment 18 h before glycerol; 18 hours after glycerol
# Experimental: Assessments of cytoresistance. Glycerol model of rhabdomyolysis-induced AKI. Twenty mice were divided into 4 equal groups (controls, mice treated with N-Mgb, SnPP, and mice treated with N-Mgb+SnPP tail vein injections) as described previously. 18 hours later, the mice were briefly anesthetized with isoflurane and immediately injected with 9 mL/kg of 50% glycerol, administered in equally divided doses into each hind limb. At 18 hours after glycerol injection, the mice were anesthetized with pentobarbital, the abdomen was opened, a blood sample for BUN and creatinine assessments was obtained from the vena cava, and the kidneys were resected. The control post-glycerol group and the N-Mgb+SnPP-pretreated glycerol group had kidney sections stained with H&E.
# To assess whether the previously determined plasma and kidney HO-1 and haptoglobin levels correlated with degrees of cytoresistance, additional mice were injected with 0, 2.5, or 5 mg of N-Mgb […] of SnPP (n=3 mice per group). Eighteen hours later, all mice were subjected to the glycerol AKI model as described previously. Severities of AKI were determined 18 hours after glycerol injection by BUN and plasma creatinine analyses.
# Calculations and statistics. All values are given as the mean […] standard error of the mean. Statistical comparisons were made by unpaired Student's t test. […]
# [4] = Berglund 1988; Kappas 1988; Reddy 2003; cited from earlier work
# [5] = system: haptoglobin protein; assay: Liver haptoglobin protein (ELISA); format: in vivo, CD-1 mice; design: unit not given beside the values
# Experimental: as §1
# [6] = system: haptoglobin mRNA; assay: Liver haptoglobin mRNA (RT-PCR); format: in vivo, CD-1 mice
# Experimental: as §1
smiles,measurement,setting,value
"C=Cc1c2[n-]c(c1C)/C=c1\[n-]/c(c(C)c1C=C)=C\c1[n-]c(c(CCC(=O)O)c1C)/C=c1\[n-]c(c(C)c1CCC(=O)O)=C2.[Sn+4] [SnPP, tin protoporphyrin]",Cardiac protein HO-1,[1],2.67 ± 0.4
same,Liver mRNA IL-10,[2]; 4 h after IV injection,0.14 ± 0.1
same,Liver mRNA IL-10,[2]; 18 h after IV injection,0.05 ± 0.01
same,Protection against glycerol-induced AKI judged by BUN/creatinine levels,[3],virtually no effect
same,Tolerability in humans,[4],well tolerated in humans
same,Liver protein Haptoglobin,[5]; 4 h after IV injection,130.0 ± 8.9
same,Liver protein Haptoglobin,[5]; 18 h after IV injection,212.0 ± 63.6
same,Liver mRNA Haptoglobin,[6]; 4 h after IV injection,0.32 ± 0.02
same,Liver mRNA Haptoglobin,[6]; 18 h after IV injection,0.65 ± 0.17
